Data reported in patent US4442087A (priority 1979, dated 1984).

Key:
Format in all cases: cell-based
[1] = test system: Rabbit spleen cells (RK-13 cells used for determination); assay: IF induction in vitro, rabbit cells; details: 1.0 μg/ml, 25 °C 24 h
Experimental: (§1) (A) IF induction and determination of IF activity:
(§2) A spleen cell suspension (10^7 cells/ml) was prepared by the method of hereinafter described Experiment 1 using an Eagle MEM medium (commercial product of Nissui Seiyaku K.K., Tokyo) containing a 10% calf serum (which was replaced by a 10% fetal cattle serum in the cases of human tests), each of which fraction (1 ml) was added with the sample of the active substance at a given concentration and incubated at a given temperature. The cultured liquor was centrifuged to separate a supernatant for use to determine the IF activity. Furthermore, in the cases of human tests, the fresh spleen was collected from a person (adult killed by external wounds) and used for the preparation of a leucocytes suspension on each occasion, and also blood was collected from the vein at the armpit of a person (adult, healthy) from which the serum was separated to use for the preparation of a serum suspension on each occasion. The IF activities were determined by using the cells shown in Table 5 by the method of hereinafterdescribed Experiment 1 and indicated in Table 6.

[2] = test system: Mouse spleen cells (L cells used for determination); assay: IF induction in vitro, mouse cells; details: 1.0 μg/ml, 37 °C 24 h
Experimental: as §1, §2

[3] = test system: Human spleen cells (FL cells used for determination); assay: IF induction in vitro, human spleen cells; details: 1.0 μg/ml, 25 °C 24 h
Experimental: as §1, §2

Substance: Poly: IC
- IF activity in vitro [1]: 220
- IF activity in vitro [2]: 120
- IF activity in vitro [3]: < 5
